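Compound exposure: 48 hours, 5 concentrations, 96-well plates. The concentration for full growth arrest is given as TGI.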
Key:
Assay in all cases: NCI tumour cell line growth inhibition, 48 h
CAKI-1 renal = system: CAKI-1 renal
COLO 205 colon = system: COLO 205 colon
HCT-116 colon = system: HCT-116 colon
M14 melanoma = system: M14 melanoma
MALME-3M melanoma = system: MALME-3M melanoma
MDA-MB-435 = system: MDA-MB-435
NCI-H460 lung = system: NCI-H460 lung
SK-MEL-5 melanoma = system: SK-MEL-5 melanoma
SNB-75 CNS = system: SNB-75 CNS
SR leukemia = system: SR leukemia
TK-10 renal = system: TK-10 renal
U251 CNS = system: U251 CNS
UACC-257 melanoma = system: UACC-257 melanoma
UACC-62 melanoma = system: UACC-62 melanoma
UO-31 renal = system: UO-31 renal
A498 renal = system: A498 renal
HOP-92 NSCLC = system: HOP-92 NSCLC

Measured: TGI

O=C1NCCCNCCCNCCCNC(=O)c2cccc1n2
> 100 µM: CAKI-1 renal | COLO 205 colon | HCT-116 colon | M14 melanoma | MALME-3M melanoma | MDA-MB-435 | NCI-H460 lung | SK-MEL-5 melanoma | SNB-75 CNS | SR leukemia | TK-10 renal | U251 CNS | UACC-257 melanoma | UACC-62 melanoma | UO-31 renal

O=C1NC2OCC(O)C(O)C2O1 (centres undefined)
> 100 µM: A498 renal | CAKI-1 renal | COLO 205 colon | HCT-116 colon | HOP-92 NSCLC | M14 melanoma | MALME-3M melanoma | NCI-H460 lung | SK-MEL-5 melanoma | SNB-75 CNS | SR leukemia | TK-10 renal | U251 CNS | UACC-257 melanoma | UACC-62 melanoma | UO-31 renal

COc1cccc(/C=C2\C(=O)N(C(=O)c3ccc(NC(C)=O)cc3)N=C2C)c1
> 100 µM: CAKI-1 renal | COLO 205 colon | HCT-116 colon | M14 melanoma | MALME-3M melanoma | NCI-H460 lung | SK-MEL-5 melanoma | SNB-75 CNS | TK-10 renal | U251 CNS | UACC-257 melanoma | UO-31 renal

CC(C)N1CN(C(C(=O)N[C@@H]2C(=O)N3C2SC(C)(C)C3C(=O)O)c2ccccc2)CSC1=S (some centres undefined)
> 100 µM: A498 renal | CAKI-1 renal | COLO 205 colon | HCT-116 colon | HOP-92 NSCLC | M14 melanoma | MALME-3M melanoma | NCI-H460 lung | SK-MEL-5 melanoma | SNB-75 CNS | TK-10 renal | U251 CNS | UACC-257 melanoma | UACC-62 melanoma | UO-31 renal

Cc1ccc(S(=O)(=O)OC(c2ccc(Cl)cc2Cl)C2OC(=O)c3ccccc32)cc1 (centres undefined)
95.6 µM: UO-31 renal
> 100 µM: COLO 205 colon | HCT-116 colon | M14 melanoma | MALME-3M melanoma | NCI-H460 lung | SK-MEL-5 melanoma | SR leukemia | TK-10 renal | U251 CNS | UACC-62 melanoma

COc1ccc(-c2cc(=O)c3ccccc3[nH]2)c(OC)c1
> 100 µM: COLO 205 colon | HCT-116 colon | M14 melanoma | MALME-3M melanoma | NCI-H460 lung | SNB-75 CNS | SR leukemia | TK-10 renal | U251 CNS | UACC-257 melanoma | UACC-62 melanoma | UO-31 renal

CCOC(=O)C(Cc1cn(S(=O)(=O)c2ccccc2)c2ccccc12)(NC(C)=O)C(=O)OCC
60.8 µM: COLO 205 colon
67.1 µM: HOP-92 NSCLC
33.7 µM: SK-MEL-5 melanoma
33.3 µM: SNB-75 CNS
55.8 µM: UO-31 renal
95.8 µM: HCT-116 colon
69.8 µM: SR leukemia
> 100 µM: CAKI-1 renal | M14 melanoma | MALME-3M melanoma | NCI-H460 lung | TK-10 renal | U251 CNS | UACC-62 melanoma
88.2 µM: UACC-257 melanoma

C=CCc1cc(-c2cc(CC=C)c(O)c(CNCCCl)c2)cc(CNCCCl)c1O
39.5 µM: MALME-3M melanoma
37 µM: NCI-H460 lung
28.6 µM: SK-MEL-5 melanoma | UO-31 renal
34.6 µM: HCT-116 colon
57.5 µM: TK-10 renal
52.3 µM: A498 renal
> 100 µM: SNB-75 CNS
31.2 µM: HOP-92 NSCLC
30.7 µM: U251 CNS
32.7 µM: M14 melanoma
32.1 µM: COLO 205 colon
32.4 µM: UACC-257 melanoma
28.3 µM: UACC-62 melanoma

N#Cc1nc(C2=C(Cl)c3ccccc3OC2)[nH]c1C#N
66.1 µM: A498 renal
31 µM: HOP-92 NSCLC
34.2 µM: M14 melanoma
64.3 µM: UACC-62 melanoma
75.9 µM: U251 CNS
51.1 µM: SK-MEL-5 melanoma
59.9 µM: UO-31 renal
75.4 µM: NCI-H460 lung
> 100 µM: CAKI-1 renal | TK-10 renal

C=C1CCC23CC(CC[C@@H]2[C@@]12C[C@@H](c1ccoc1)OC2=O)OC3=O (some centres undefined)
> 100 µM: A498 renal | CAKI-1 renal | COLO 205 colon | HCT-116 colon | HOP-92 NSCLC | M14 melanoma | MALME-3M melanoma | NCI-H460 lung | SK-MEL-5 melanoma | TK-10 renal | U251 CNS | UACC-257 melanoma | UACC-62 melanoma | UO-31 renal

COc1ccc(N2C(=O)c3cc(C)cnc3S2(=O)=O)cc1
> 100 µM: COLO 205 colon | HCT-116 colon | HOP-92 NSCLC | MALME-3M melanoma | MDA-MB-435 | NCI-H460 lung | SK-MEL-5 melanoma | SNB-75 CNS | SR leukemia | TK-10 renal | U251 CNS | UACC-62 melanoma | UO-31 renal

CC(=O)OC1(C)C=CC(=O)C=C1
34.4 µM: UACC-257 melanoma
79.5 µM: NCI-H460 lung
84 µM: A498 renal
28.7 µM: U251 CNS
> 100 µM: CAKI-1 renal | COLO 205 colon | HCT-116 colon | HOP-92 NSCLC | M14 melanoma | MDA-MB-435 | SK-MEL-5 melanoma | SNB-75 CNS | SR leukemia
49.8 µM: TK-10 renal
35.7 µM: UACC-62 melanoma
46.4 µM: UO-31 renal

CCO/N=C(/N)c1ncn(Cc2ccccc2)c1NCC(OCC)OCC
> 100 µM: A498 renal | CAKI-1 renal | COLO 205 colon | HCT-116 colon | M14 melanoma | MALME-3M melanoma | NCI-H460 lung | SK-MEL-5 melanoma | SNB-75 CNS | TK-10 renal | U251 CNS | UACC-257 melanoma | UACC-62 melanoma | UO-31 renal

COC(=O)C(=Cc1cc(OC)c(OC)c(OC)c1-c1cc2c(cc1C(C)=O)OCO2)C(=O)OC
187 µM: TK-10 renal
78.3 µM: MALME-3M melanoma
62.5 µM: HCT-116 colon
> 211 µM: NCI-H460 lung | SR leukemia
66.4 µM: U251 CNS
70.1 µM: SK-MEL-5 melanoma
124 µM: HOP-92 NSCLC
73.8 µM: UACC-62 melanoma
66.8 µM: COLO 205 colon
108 µM: CAKI-1 renal
188 µM: UACC-257 melanoma
